In patent EP0096116B1, “Thiophene derivative having a mucoregulating and anticough activity, process for its preparation and pharmaceutical compositions containing it” (AUSONIA FARMACEUTICI S.r.l., priority 1982, dated 1983):

Key:
[1] = test system: tracheo-bronchial mucus from rabbits; assay: Fluidifying activity in vivo, microviscosimeter on tracheo-bronchial mucus; conditions: 500 mg/kg/os, rabbit
From the text: The fluidifying effect has been determined with the microviscosimeter on the tracheo-bronchial mucus from rabbits after administration by oral route, comparing I with sobrerol, at the doses hereinafter stated.

male Wistar rats = assay: Bronchosecretogogue activity (Mawatari technique); type: in vivo, rat; conditions: 500 mg/kg/os, FlNa = Sodium fluoresceine
From the text: The broncosecretogogue activity has been determined in male Wistar rats by per os administration according to the method of Mawatari [Mawatari H., Kagoshima Daigaku, Igaku-Zasshi, 27, 561 (1976)], comparing I with carboxymethylcysteine, sobrerol and guaiphenesin at the doses hereinafter stated.

[2] = Acute toxicity (method of Litchfield and Wilcoxon), rat; conditions: Wistar, in vivo
From the text: (§1) The acute toxicity has been determined in Swiss mouses and in Wistar rats for different administration routes, according to the method of Litchfield J. T. and Wilcoxon [J. Pharm. Exp. Therap. 96,99-113 (1949)].

[3] = Pharmacokinetic tests after oral administration; type: in vivo; conditions: oral administration of I and sobrerol in equimolar doses, in the animal
[4] = Acute toxicity (method of Litchfield and Wilcoxon), mouse; conditions: Swiss, in vivo
From the text: as §1

[5] = Solubility of the isolated compound; type: physicochemical
From the text: 73 Grams of an oil, impossible to crystallize but perfectly pure in TLC, are obtained.

Row | SMILES | % Reduction of the mucus viscosity [1] | % Increase of FlNa in comparison with controls (male Wistar rats) | LD50 ([2]; ip) | LD50 ([2]; oral, os) | sobrerol concentrations at pulmonary level [3] | LD50 ([4]; ip) | LD50 ([4]; oral, os) | solubility in the common organic solvents ([5]; common organic solvents) | solubility in water ([5]; water)
1 | CC1=CCC(C(C)(C)O)CC1O (centres unmarked) [Sobrerol, 2-methyl-5-(1-hydroxy-1-methyl-ethyl)-2-cyclohexen-1-ol, reference compound] | 15.6% | 33.4% |  |  |  |  |  |  | 
2 | CC1=CCC(C(C)(C)O)CC1OC(=O)c1cccs1 (centres unmarked) [Compound I, thiophen-2-carboxylate of 2-methyl-5-(1-hydroxy-1-methylethyl)-cyclohexen-2-yl] | 39.8% | 76.4% | 2650 mg/kg | > 4000 mg/kg | higher sobrerol concentrations at pulmonary level | 2500 mg/kg | > 4000 mg/kg | soluble in the common organic solvents | almost insoluble in water
